Results as given in PMC10313368 (The Journal of Clinical Investigation, 2023).
“And” between values parts separate entries of the source, which are not always exact repeats. Equal values may be shown once. Residues, ends and D or L forms follow the SMILES beside them. *: point of attachment. Cbz = O=C(OCc1ccccc1)*

Columns and labels:
[1] = target: HIF-2α (Homo sapiens, UniProt Q99814); experiment: Immunoblot of HIF-2α accumulation in MIO-M1 cells cultured in hypoxia; format: cell-based; design: endogenous in cells; host or cells: MIO-M1; conditions: MIO-M1, hypoxia 4 hours; MG-132
Sequence of HIF-2α (Q99814 whole entry): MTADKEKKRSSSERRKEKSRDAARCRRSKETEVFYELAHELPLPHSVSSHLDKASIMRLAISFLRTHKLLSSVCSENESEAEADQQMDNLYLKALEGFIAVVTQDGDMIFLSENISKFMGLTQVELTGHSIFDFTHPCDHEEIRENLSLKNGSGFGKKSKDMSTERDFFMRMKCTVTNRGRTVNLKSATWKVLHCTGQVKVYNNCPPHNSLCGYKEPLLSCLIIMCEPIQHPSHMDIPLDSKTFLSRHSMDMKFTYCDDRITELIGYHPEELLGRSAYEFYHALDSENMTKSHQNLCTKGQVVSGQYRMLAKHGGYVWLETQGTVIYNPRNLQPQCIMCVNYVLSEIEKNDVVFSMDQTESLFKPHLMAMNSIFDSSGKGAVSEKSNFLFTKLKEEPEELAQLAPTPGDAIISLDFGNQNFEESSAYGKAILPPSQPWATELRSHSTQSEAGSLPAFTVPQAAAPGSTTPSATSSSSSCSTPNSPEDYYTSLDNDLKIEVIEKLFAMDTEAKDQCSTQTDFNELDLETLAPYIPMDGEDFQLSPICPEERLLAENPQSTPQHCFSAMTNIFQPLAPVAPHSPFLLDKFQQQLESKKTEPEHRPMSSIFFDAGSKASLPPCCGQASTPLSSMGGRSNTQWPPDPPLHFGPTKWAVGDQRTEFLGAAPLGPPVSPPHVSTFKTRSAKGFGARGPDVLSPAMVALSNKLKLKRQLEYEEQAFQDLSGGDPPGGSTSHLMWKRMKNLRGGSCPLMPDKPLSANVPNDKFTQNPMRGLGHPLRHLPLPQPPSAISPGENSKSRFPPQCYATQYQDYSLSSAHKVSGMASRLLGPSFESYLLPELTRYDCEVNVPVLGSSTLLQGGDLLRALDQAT
Experimental: (§1) MIO-M1, HUVECs, and ARPE19 cells were cultured in DMEM with 10% (vol/vol) FBS (Quality Biological) and 1% penicillin/streptomycin (Cellgro). A hypoxic chamber (Coy Laboratory Product Inc.; Two Glove Model) with 5% CO2, 94% N2, and 1% O2 gas concentration at 37°C was used to culture hypoxic cells. The control cells were cultured in an incubator maintained at 37°C, with 21% O2 and 5% CO2. […] Aflibercept was obtained from the Johns Hopkins University Pharmacy.
(§2) Immunoblot assays. Cells, neurosensory retina, and D120 retinal organoid lysates were subjected
(§3) to 4–15% gradient SDS/PAGE (Invitrogen). Immunoblot (Western blot or WB) assays were
(§4) performed as previously described (1). […]

[2] = target: HIF-1α (Homo sapiens, UniProt Q16665); experiment: Immunoblot of HIF-1α accumulation in MIO-M1 cells cultured in hypoxia; format: cell-based; design: endogenous in cells; host or cells: MIO-M1; conditions: MIO-M1, hypoxia 4 hours; MG-132 10 μM, bortezomib 10 μM, bafilomycin 10 nM
Sequence of HIF-1α (Q16665 whole entry): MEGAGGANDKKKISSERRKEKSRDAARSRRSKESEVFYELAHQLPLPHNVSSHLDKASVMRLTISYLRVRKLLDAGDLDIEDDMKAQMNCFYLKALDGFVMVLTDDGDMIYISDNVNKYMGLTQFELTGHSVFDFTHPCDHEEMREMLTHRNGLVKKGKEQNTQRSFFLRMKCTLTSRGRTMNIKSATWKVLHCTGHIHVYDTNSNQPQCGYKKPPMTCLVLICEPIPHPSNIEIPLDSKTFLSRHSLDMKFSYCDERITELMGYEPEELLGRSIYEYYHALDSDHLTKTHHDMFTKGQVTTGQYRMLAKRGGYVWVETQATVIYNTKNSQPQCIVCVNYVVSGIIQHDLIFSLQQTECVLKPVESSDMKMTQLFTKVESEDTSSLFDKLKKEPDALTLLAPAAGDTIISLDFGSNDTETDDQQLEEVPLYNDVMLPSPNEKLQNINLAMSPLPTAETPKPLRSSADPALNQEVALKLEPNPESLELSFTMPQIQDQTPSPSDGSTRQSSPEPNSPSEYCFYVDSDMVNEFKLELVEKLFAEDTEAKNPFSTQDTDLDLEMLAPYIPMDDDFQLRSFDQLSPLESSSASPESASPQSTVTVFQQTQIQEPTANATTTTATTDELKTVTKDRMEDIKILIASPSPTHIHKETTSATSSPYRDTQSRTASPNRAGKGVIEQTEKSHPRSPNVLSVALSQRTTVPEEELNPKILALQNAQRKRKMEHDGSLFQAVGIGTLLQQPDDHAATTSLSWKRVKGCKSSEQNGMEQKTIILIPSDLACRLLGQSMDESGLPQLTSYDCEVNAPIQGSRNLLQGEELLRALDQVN
Experimental: as §1, §2, §3, §4

[3] = system: HIF-regulated angiogenic mediators; experiment: mRNA expression of HIF-regulated vasoactive mediators in OIR mouse retina (qPCR); format: in vivo
Experimental: (§5) Reverse transcription and quantitative real-time PCR. Total RNA was isolated from cultured cells or retinas with PureLinkTM RNA Mini Kit (Invitrogen #12183025), and cDNA was prepared with MuLV Reverse Transcriptase (Applied Biosystems). Quantitative real-time PCR was performed with Power SYBR Green PCR Master Mix (Applied Biosystems) and MyiQ Real-Time PCR Detection System (Bio-Rad). Normalization was done using cyclophilin A for mouse tissue and human cell lines. Primers are listed in Supplemental Table 2. […]
(§6) Animal studies. Eight-week-old pathogen-free female C57BL/6 mice were obtained from The Jackson Laboratory (JAX). Timed pregnant C57BL/6 mice were obtained from Charles River Laboratories. Mice heterozygous for HIF-1α have been previously described (2). Mice heterozygous for HIF-2α (strain number: 003266; common name: EPAS1 KO) were purchased […]
(§7) OIR mouse model. OIR experiments were performed as previously described (1, 3). Briefly, C57BL/6 mice were placed in 75% O2 on P7. On P12, the mice were returned to room air and were […]
(§8) (or vehicle) by intravitreal injection. Mice with body weight less than 6 g at P17 were excluded […]
(§9) from analysis. Data were collected from both males and females and the results were combined since there was no apparent difference between sexes. Representative images for selected time points from a minimum of three independent experiments are shown. Data from 3-8 pups were obtained at each time point. […]
(§10) Intraperitoneal (IP) injections. […]
(§11) intraperitoneally using an insulin syringe in OIR pups. […]
(§12) the peritoneal cavity of neonatal C57BL/6 mice and STZ mice at indicated times, and the retinal vasculature and lysates for WB and qPCR were assessed at P17.
(§13) Intraocular injections. Intravitreal injections were performed with a PLI-100A Pico-liter Microinjector (Warner Instruments, Harvard Bioscience) using pulled-glass micropipettes. Each micropipette was calibrated to deliver a 1 μl volume on depression of a foot switch. The mice were anesthetized with a ketamine (100 mg/kg) and xylazine (5mg/kg) mixture, and under a dissecting microscope, the sharpened tip of the micropipette was passed through the sclera just posterior to the limbus into the vitreous cavity and the foot switch was depressed, which caused fluid to […]

[4] = system: OIR mice; experiment: Retinal NV in the oxygen-induced retinopathy (OIR) mouse model; format: in vivo; conditions: for OIR NV%: Figure 14D
Text: To characterize the contribution of these other HIF-regulated angiogenic factors to the promotion of ischemia-driven retinal NV in vivo, we used the classic oxygen-induced retinopathy (OIR) model characterized by Smith and colleagues ([35]). In stage 1 of this model, P7 pups are exposed to hyperoxia (75% O2) for 5 consecutive days (P7–P12), resulting in obliteration of the posterior retinal vasculature. In stage 2, pups (at P12) are returned to room air (21% O2). The resulting relative ischemia promotes the expression of angiogenic mediators that stimulate the development of retinal NV (peaking at P17; Figure 2A). […]
as §6, §7, §8, §9, §10, §11, §12, §13
penetrate into the vitreous space. […]
mice for vascular permeability test, retinal vasculature, and lysates for WB and qPCR analysis.
Immunoﬂuorescence assays. Details for antibodies are provided in Supplemental Table 1.
Immunofluorescence assays in retinal organoids and mouse retinal tissues were performed as previously described (4). Briefly, mice were sacrificed using CO2 asphyxiation, and the eyes were enucleated and fixed with a solution of 4% paraformaldehyde in PBS (Thermo Scientific™) for two hours at RT, followed by washing with PBS for 10 minutes in a shaker. Retinas were isolated and incubated in 0.5% BSA solution overnight at 4 °C. Retinas were then washed with PBS 3 times for 10 minutes in the shaker and stained with isolectin B4 (Invitrogen; 1:200 dilution in PBS) overnight at 4 °C. After washing 3 times for 10 minutes each in the shaker, the retinas were mounted. Images were captured with Zeiss fluorescent microscope. Eight fields per eye (2 fields per petal) including area of neovascularization were selected and fluorescence intensity was measured by ImageJ software. […]
The eyes were enucleated and immediately immersed in 4% (wt/vol) paraformaldehyde for 2 hours at room temperature. Retinas were isolated and wholemounts prepared on clean glass slides and mounted vitreous side up under coverslips with antifade medium (Vectashield; Vector Laboratories, Burlingame, CA). Images were captured by Zeiss fluorescent microscope or confocal microscopy and fluorescence was quantified by the image J software (National Institutes

[5] = system: HIF-regulated vasoactive mediators; experiment: mRNA expression of HIF-regulated vasoactive mediators in retina of STZ-induced diabetic mice (qPCR); format: in vivo, mouse
Experimental: as §5
(§14) STZ-induced diabetes mouse model. 8-to-10 week-old male mice received an IP injection of STZ at 40 mg/kg of body weight in 0.1M of citrate buffer (pH 4.5) for 5 consecutive days. Normal chow and 10% sucrose water were provided during this period. 10% sucrose was discontinued and replaced with regular water on experimental day 6. Blood glucose was measured on experimental day 28 after 16 hours fasting and mice with blood glucose level > 250 mg/dL were considered […]
as §10

[6] = system: STZ-induced diabetic mice; experiment: Vascular permeability by Evans blue tracer method in STZ mice; format: in vivo, mouse; conditions: digoxin treatment, mice hyperglycemic for 6 months
Experimental: as §14, with “6.” for “6. Blood glucose was measured on experimental day 28 after 16 hours fasting and mice with blood glucose level > 250 mg/dL were considered”
Intraocular injections. Intravitreal injections were performed with a PLI-100A Pico-liter Microinjector (Warner Instruments, Harvard Bioscience) using pulled-glass micropipettes. Each micropipette was calibrated to deliver a 1 μl volume on depression of a foot switch. […]
Images were captured with Zeiss fluorescent microscope. Eight fields per eye (2 fields per petal) including area of neovascularization were selected and fluorescence intensity was measured by ImageJ software. […]
The eyes were enucleated and immediately immersed in 4% (wt/vol) paraformaldehyde for 2 hours at room temperature. […] Images were captured by Zeiss fluorescent microscope or confocal microscopy and fluorescence was quantified by the image J software (National Institutes […]
of Health, Bethesda, MD). Blinded quantification of the number of leaking vessels was performed by manual counting of major leakage from capillaries from retinas of each group. […] Random fields were chosen from retinas where leakages were absent to determine baseline fluorescence that arise from capillaries. […]

[7] = OIR mice P17, Digoxin i.p. 2mg/kg at P12, NON-OIR about 1, replicates, Figure 2C, 2 mg/kg
[8] = digoxin 2 mg/kg i.p. at P12, P17
[9] = STZ mice + Digoxin, control about 1, replicates, Figure 4F

Compound: CC(C)C[C@@H](C=O)NC(=O)[C@H](CC(C)C)NC(=O)[C@H](CC(C)C)NC(=O)OCc1ccccc1 [MG-132, reference compound] (Cbz-Leu-Leu-Leu-aldehyde)
- effect of pretreatment on 32-134D inhibition of HIF-2α accumulation [1]: prevented the ability of 32-134D to block HIF-1α and HIF-2α protein accumulation
- effect of pretreatment on 32-134D inhibition of HIF-1α accumulation [2]: prevented the ability of 32-134D to block HIF-1α and HIF-2α protein accumulation

Compound: CO/C1=C\C(C)=C\[C@@H](C)[C@@H](O)[C@@H](C)C/C(C)=C/C=C/[C@H](OC)[C@@H]([C@@H](C)[C@@H](O)[C@H](C)[C@@]2(O)C[C@@H](O)[C@H](C)[C@@H](C(C)C)O2)OC1=O [bafilomycin, reference compound]
- effect of pretreatment on 32-134D inhibition of HIF-1α accumulation [2]: did not prevent 32-134D from inhibiting HIF-1α accumulation

Compound: CC(C)C[C@H](NC(=O)[C@H](Cc1ccccc1)NC(=O)c1cnccn1)B(O)O [bortezomib, reference compound]
- effect of pretreatment on 32-134D inhibition of HIF-1α accumulation [2]: corroborated

Compound: C[C@H]1O[C@@H](O[C@H]2[C@@H](O)C[C@H](O[C@H]3[C@@H](O)C[C@H](O[C@H]4CC[C@@]5(C)[C@H](CC[C@@H]6[C@@H]5C[C@@H](O)[C@]5(C)[C@@H](C7=CC(=O)OC7)CC[C@]65O)C4)O[C@@H]3C)O[C@@H]2C)C[C@H](O)[C@@H]1O [digoxin, reference compound]
- Vegfa mRNA ([3]; OIR mice P17, Digoxin i.p. 2mg/kg at P12, NON-OIR about 1, replicates, Figure 2B, 2 mg/kg): 4.361 and 3.814 and 4.0024
- Angpt2 mRNA [3, 7]: 1.359 and 1.263 and 1.386
- Angptl4 mRNA [3, 7]: 1.389 and 1.31 and 1.599
- Pdgfb mRNA [3, 7]: 3.611 and 3.067 and 2.999
- Ptprb mRNA [3, 7]: 0.8633 and 0.7662 and 0.7639
- Serpine1 mRNA [3, 7]: 13.6912 and 13.3012 and 10.8019
- expression of VEGF in OIR mice (in words) [3, 8]: only modestly inhibiting the expression of VEGF
- expression of other vasoactive genes in OIR mice (in words) [3, 8]: modest reduction
- neovascular area (%) ([4]; OIR mice at P17, single i.p. digoxin 2 mg/kg at P12, individual values, Figure 2A): 0.786% and 0.8973% and 1.637% and 0.108% and 0.7093% and 1.719%
- retinal NV in the OIR model (in words) ([4]; digoxin 2 mg/kg single i.p. at P12, read at P17): prevented retinal NV
- Angptl4 mRNA [5, 9]: 0.6214 and 1.778 and 1.462
- Vegfa mRNA [5, 9]: 0.79 and 0.8827 and 0.5987
- Vegf and Angptl4 mRNA expression in STZ mice (in words) ([5]; digoxin treatment): decrease in Vegf and Angptl4 mRNA expression to levels similar to those in nondiabetic mice
- vascular permeability in STZ mice (in words) [6]: decreased vascular permeability

Compound: aflibercept: FDA-approved anti-VEGF therapy for DME and PDR [reference compound]
- OIR NV% ([4]; 100ng i.v., individual values): 10.6252% and 10.4463% and 8.931% and 10.009% and 8.751% and 10.316%
- OIR NV% ([4]; 200ng i.v., individual values): 6.75% and 9.52% and 8.9161% and 6.123% and 11.2235% and 10.084%
- OIR NV% ([4]; 400ng i.v., individual values): 2.501% and 5.995% and 9.1174% and 1.799% and 6.421% and 2.903%
